Results reported in PubChem BioAssay AID1259408 (Genetic Toxicology Data Bank (GENE-TOX), 2018).
Calls of active or inactive are those of the source. How the calls were made is not given here.

System: GENE-TOX genotoxicity assays, various organisms and cells
Experiment: GENE-TOX mutagenicity studies
Conditions: Evaluation Type: Evaluation A (Pre-1980)

**Q.** Which mutagenic call (Species/Cell Type: Glycine max (soybean), Assay Type: Gene mutation, Assay Code: GLM+) does the source give for `CCCCS(=O)(=O)OC` here?
**A.** active; positive

**Q.** `CN(C)C(=O)Nc1ccc(Cl)cc1` was tested. Which mutagenic call (Species/Cell Type: Bacillus subtilis (H17 vs M45), Assay Type: Rec-assay, spot test, DNA effects (bacterial DNA repair), Assay Code: REWT) did it give?
**A.** no conclusion

**Q.** And the mutagenic call (Species/Cell Type: Drosophila melanogaster, Assay Type: Sex-linked recessive lethal gene mutation, Assay Code: SRLT)?
**A.** no conclusion

**Q.** What about the mutagenic call (Species/Cell Type: Escherichia coli WP2 UVRA, Assay Type: Tryptophan reverse gene mutation, Assay Code: WPU-*, Activation: With metabolic activation) of the same molecule?
**A.** inactive; negative

**Q.** What about the mutagenic call (Species/Cell Type: Escherichia coli polA (W3119 vs P3478), Assay Type: Rec-assay, DNA effects (bacterial DNA repair), Assay Code: RE1T) of the same molecule?
**A.** no conclusion

**Q.** What about the mutagenic call (Species/Cell Type: Hordeum vulgare (barley), Assay Type: Chromosome aberrations, Assay Code: HOC+) of the same molecule?
**A.** active; positive

**Q.** And the mutagenic call (Species/Cell Type: Human diploid fibroblasts, Assay Type: Unscheduled DNA synthesis (UDS) in vitro, DNA effects, Assay Code: UDH-)?
**A.** inactive; negative

**Q.** And the call (Species/Cell Type: Nonhuman, Assay Type: In vivo carcinogenicity studies, Assay Code: CCG+L)?
**A.** active; positive

**Q.** And the mutagenic call (Species/Cell Type: Saccharomyces cerevisiae, Assay Type: Mitotic recombination or gene conversion, Assay Code: YEH-)?
**A.** inactive; negative

**Q.** How did the mutagenic call (Species/Cell Type: Drosophila melanogaster, Assay Type: Aneuploidy, whole sex chromosome loss, chromosome aberrations, Assay Code: DAC-M) turn out when `Nc1ncnc2c1ncn2[C@@H]1O[C@H](COP(=O)(O)OP(=O)(O)OP(=O)(O)O)[C@@H](O)[C@H]1O` was run?
**A.** inactive; negative
